According to ChEMBL document CHEMBL1124091, “Synthesis, resolution, and absolute configuration of the isomers of the neuronal excitant 1-amino-1,3-cyclopentanedicarboxylic acid” (J Med Chem, 1988):

assay: Repolarization time for compound was measured by pattern firing by APN and KVN blockade; assay type: functional; set-up: unit not given here

Row | Compound | Repolarization time
1 | N[C@@]1(C(=O)O)CC[C@H](C(=O)O)C1 (stereo in doubt; trans) | 17
2 | N[C@H](Cn1oc(=O)[nH]c1=O)C(=O)O | 7.8
3 | C=C(C)[C@H]1CN[C@H](C(=O)O)[C@H]1CC(=O)O | 19.9
4 | N[C@]1(C(=O)O)CC[C@H](C(=O)O)C1 | 12.7
5 | CN[C@H](CC(=O)O)C(=O)O | 8
6 | N[C@@]1(C(=O)O)CC[C@H](C(=O)O)C1 (stereo in doubt; cis) | 15
7 | N[C@]1(C(=O)O)CC[C@@H](C(=O)O)C1 | 10.5
